We go through eight molecules from patent US10206394B2, “Herbicidal compounds” (Syngenta Participations AG, priority 2014, dated 2019).

Read-outs that look alike come from different tables or passages of the source.

Common to all, as to assay: Glasshouse assay for herbicidal activity (pre- and post-emergence), percentage phytotoxicity
Holding throughout (format): in vivo

In experiment [1] the test system is Alopecurus myosuroides (ALOMY). The following applies: Alopecurus myosuroides. A digest of the protocol: (§1)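 Potted test plants in standard soil received the compound pre-emergence (day 1) or post-emergence (about day 12). Evaluation: visual damage score from 0% (none) to 100% (total), 15 days after application post-emergence, 20 days pre-emergence.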
A further experiment relates to Avena fatua (AVEFA). The following applies: Avena fatua. A digest of the protocol: as §1
The test system of experiment [2] is Echinochloa crus-galli (ECHCG). The following applies: Echinochloa crus-galli. A digest of the protocol: as §1
The next experiment has as its system Lolium perenne (LOLPE). The following applies: Lolium perenne. A digest of the protocol: as §1
[3] abbreviates: post-emergence, 360 h, post-emergence, 250 g/ha, 15 DAA, visual score (100%=total damage; 0%=no damage), read-out: ALOMY POST herbicidal activity (percentage phytotoxicity).
Setting [4] is: pre-emergence, 480 h, pre-emergence, 250 g/ha, 20 DAA, visual score (100%=total damage; 0%=no damage), read-out: ALOMY PRE herbicidal activity (percentage phytotoxicity).
Where [5] appears, read: post-emergence, 360 h, post-emergence, 250 g/ha, 15 DAA, visual score (100%=total damage; 0%=no damage), read-out: AVEFA POST herbicidal activity (percentage phytotoxicity).
Where [6] appears, read: pre-emergence, 480 h, pre-emergence, 250 g/ha, 20 DAA, visual score (100%=total damage; 0%=no damage), read-out: AVEFA PRE herbicidal activity (percentage phytotoxicity).
[7] abbreviates: post-emergence, 360 h, post-emergence, 250 g/ha, 15 DAA, visual score (100%=total damage; 0%=no damage), read-out: ECHCG POST herbicidal activity (percentage phytotoxicity).
Where [8] appears, read: pre-emergence, 480 h, pre-emergence, 250 g/ha, 20 DAA, visual score (100%=total damage; 0%=no damage), read-out: ECHCG PRE herbicidal activity (percentage phytotoxicity).
[9] abbreviates: post-emergence, 360 h, post-emergence, 250 g/ha, 15 DAA, visual score (100%=total damage; 0%=no damage), read-out: LOLPE POST herbicidal activity (percentage phytotoxicity).
[10] abbreviates: pre-emergence, 480 h, pre-emergence, 250 g/ha, 20 DAA, visual score (100%=total damage; 0%=no damage), read-out: LOLPE PRE herbicidal activity (percentage phytotoxicity).
The mark [11] stands for this setting: post-emergence, 360 h, Rate 250 g/ha, post-emergence, assessed visually 15 DAA, 100%=total damage, 0%=no damage, read-out: Post-emergence herbicidal activity (percentage phytotoxicity) ALOMY POST.
[12] abbreviates: pre-emergence, 480 h, Rate 250 g/ha, pre-emergence, assessed visually 20 DAA, 100%=total damage, 0%=no damage, read-out: Pre-emergence herbicidal activity (percentage phytotoxicity) ALOMY PRE.
Where [13] appears, read: post-emergence, 360 h, Rate 250 g/ha, post-emergence, assessed visually 15 DAA, 100%=total damage, 0%=no damage, read-out: Post-emergence herbicidal activity (percentage phytotoxicity) AVEFA POST.
[14] abbreviates: pre-emergence, 480 h, Rate 250 g/ha, pre-emergence, assessed visually 20 DAA, 100%=total damage, 0%=no damage, read-out: Pre-emergence herbicidal activity (percentage phytotoxicity) AVEFA PRE.
The mark [15] stands for this setting: post-emergence, 360 h, Rate 250 g/ha, post-emergence, assessed visually 15 DAA, 100%=total damage, 0%=no damage, read-out: Post-emergence herbicidal activity (percentage phytotoxicity) ECHCG POST.
Setting [16] is: pre-emergence, 480 h, Rate 250 g/ha, pre-emergence, assessed visually 20 DAA, 100%=total damage, 0%=no damage, read-out: Pre-emergence herbicidal activity (percentage phytotoxicity) ECHCG PRE.
Where [17] appears, read: post-emergence, 360 h, Rate 250 g/ha, post-emergence, assessed visually 15 DAA, 100%=total damage, 0%=no damage, read-out: Post-emergence herbicidal activity (percentage phytotoxicity) LOLPE POST.
The mark [18] stands for this setting: pre-emergence, 480 h, Rate 250 g/ha, pre-emergence, assessed visually 20 DAA, 100%=total damage, 0%=no damage, read-out: Pre-emergence herbicidal activity (percentage phytotoxicity) LOLPE PRE.
Setting [19] is: post-emergence, 360 h, Rate 250 g/ha, post-emergence, visual assessment 15 DAA, 100%=total damage, 0%=no damage, read-out: Post-emergence herbicidal activity (percentage phytotoxicity) ALOMY POST.
Setting [20] is: pre-emergence, 480 h, Rate 250 g/ha, pre-emergence, visual assessment 20 DAA, 100%=total damage, 0%=no damage, read-out: Pre-emergence herbicidal activity (percentage phytotoxicity) ALOMY PRE.
Where [21] appears, read: post-emergence, 360 h, Rate 250 g/ha, post-emergence, visual assessment 15 DAA, 100%=total damage, 0%=no damage, read-out: Post-emergence herbicidal activity (percentage phytotoxicity) AVEFA POST.
[22] abbreviates: pre-emergence, 480 h, Rate 250 g/ha, pre-emergence, visual assessment 20 DAA, 100%=total damage, 0%=no damage, read-out: Pre-emergence herbicidal activity (percentage phytotoxicity) AVEFA PRE.
[23] abbreviates: post-emergence, 360 h, Rate 250 g/ha, post-emergence, visual assessment 15 DAA, 100%=total damage, 0%=no damage, read-out: Post-emergence herbicidal activity (percentage phytotoxicity) ECHCG POST.
The mark [24] stands for this setting: pre-emergence, 480 h, Rate 250 g/ha, pre-emergence, visual assessment 20 DAA, 100%=total damage, 0%=no damage, read-out: Pre-emergence herbicidal activity (percentage phytotoxicity) ECHCG PRE.
Where [25] appears, read: post-emergence, 360 h, Rate 250 g/ha, post-emergence, visual assessment 15 DAA, 100%=total damage, 0%=no damage, read-out: Post-emergence herbicidal activity (percentage phytotoxicity) LOLPE POST.
The mark [26] stands for this setting: pre-emergence, 480 h, Rate 250 g/ha, pre-emergence, visual assessment 20 DAA, 100%=total damage, 0%=no damage, read-out: Pre-emergence herbicidal activity (percentage phytotoxicity) LOLPE PRE.

Turning to `CCCCCCCNC(=O)CC1CC(=O)C(c2c(C)cc(C)cc2C)C1=O` (stereo not shown) [Compound A178], the pest or weed control at 250 g/ha in experiment [1] (setting [3]) worked out at 70%; in experiment [1] (setting [4]), 20%; in the experiment with Avena fatua (AVEFA) (setting [5]) it was 70%; in the experiment with Avena fatua (AVEFA) (setting [6]) it was 0%; in experiment [2] (setting [7]) it was 40%; in experiment [2] (setting [8]), 80%. Besides, the pest or weed control at 250 g/ha turned out to be 70% with Lolium perenne (LOLPE) (setting [9]) and 80% in the experiment on Lolium perenne (LOLPE) (setting [10]).

On to `CC#Cc1cc(C)c(C2C(=O)CC(CC(=O)NCC(C)C)C2=O)c(C)c1` (stereo not shown) [Compound A30], for which the pest or weed control at 250 g/ha (in experiment [1] (setting [11]); in experiment [1] (setting [12]); in the experiment with Avena fatua (AVEFA) (setting [13]); in the experiment on Avena fatua (AVEFA) (setting [14]); in experiment [2] (setting [15]); in experiment [2] (setting [16])) was 100% in each case. Moreover, the pest or weed control at 250 g/ha in the experiment with Lolium perenne (LOLPE) (setting [17]) and in the experiment on Lolium perenne (LOLPE) (setting [18]) was 100% each time.

Regarding `Cc1cnc(CNC(=O)CC2CC(=O)C(c3c(C)cc(-c4ncc(Cl)cc4F)cc3C)C2=O)cn1` (stereo not shown) [Compound A152], the pest or weed control at 250 g/ha in experiment [1] (setting [11]) came to 90%; in experiment [1] (setting [12]) it was 70%; with Avena fatua (AVEFA) (setting [13]), 100%; in the experiment on Avena fatua (AVEFA) (setting [14]), 100%; in experiment [2] (setting [15]), 90%; in experiment [2] (setting [16]), 100%. Besides, the pest or weed control at 250 g/ha with Lolium perenne (LOLPE) (setting [17]) was found to be 100%; in the experiment with Lolium perenne (LOLPE) (setting [18]), 90%.

Consider `Cc1cc(-c2ncc(Cl)cn2)cc(C)c1C1C(=O)CC(CC(=O)N(C)Cc2cccc(F)c2)C1=O` (stereo not shown) [Compound B338], for which the pest or weed control at 250 g/ha in experiment [1] (setting [19]) was 100%; in experiment [1] (setting [20]) it was 100%; with Avena fatua (AVEFA) (setting [21]) it was 100%; in the experiment on Avena fatua (AVEFA) (setting [22]), 80%; in experiment [2] (setting [23]), 100%; in experiment [2] (setting [24]), 100%. In addition, the pest or weed control at 250 g/ha with Lolium perenne (LOLPE) (setting [25]) stood at 90%; in the experiment on Lolium perenne (LOLPE) (setting [26]), 100%.

For the molecule `CCSC(=O)OC1=C(c2c(C)cc(-c3ncc(Cl)cn3)cc2C)C(=O)C(CC(=O)NC(C)(C)C)C1` (stereo not shown) [Compound P5], the pest or weed control at 250 g/ha is 100% in experiment [1] (setting [3]); 100% in experiment [1] (setting [4]); 100% in the experiment with Avena fatua (AVEFA) (setting [5]); 90% in the experiment with Avena fatua (AVEFA) (setting [6]); 100% in experiment [2] (setting [7]); 100% in experiment [2] (setting [8]). In addition, the pest or weed control at 250 g/ha in the experiment with Lolium perenne (LOLPE) (setting [9]) and in the experiment with Lolium perenne (LOLPE) (setting [10]) was 100% in each case.

As to `Cc1cc(-c2ncc(F)cn2)cc(C)c1C1C(=O)CC(CC(=O)N(C)C(C)(C)C)C1=O` (stereo not shown) [Compound B331], the pest or weed control at 250 g/ha in experiment [1] (post-emergence, 360 h, POST-emergence, rate 250 g/ha, visual score 15 DAA (100%=total damage, 0%=no damage), read-out: Post-emergence herbicidal activity (percentage phytotoxicity) ALOMY POST) was 90%; in experiment [1] (pre-emergence, 480 h, PRE-emergence, rate 250 g/ha, visual score 20 DAA (100%=total damage, 0%=no damage), read-out: Pre-emergence herbicidal activity (percentage phytotoxicity) ALOMY PRE), 100%; in the experiment on Avena fatua (AVEFA) (post-emergence, 360 h, POST-emergence, rate 250 g/ha, visual score 15 DAA (100%=total damage, 0%=no damage), read-out: Post-emergence herbicidal activity (percentage phytotoxicity) AVEFA POST), 100%; with Avena fatua (AVEFA) (pre-emergence, 480 h, PRE-emergence, rate 250 g/ha, visual score 20 DAA (100%=total damage, 0%=no damage), read-out: Pre-emergence herbicidal activity (percentage phytotoxicity) AVEFA PRE) it was 90%; in experiment [2] (post-emergence, 360 h, POST-emergence, rate 250 g/ha, visual score 15 DAA (100%=total damage, 0%=no damage), read-out: Post-emergence herbicidal activity (percentage phytotoxicity) ECHCG POST) it was 100%; in experiment [2] (pre-emergence, 480 h, PRE-emergence, rate 250 g/ha, visual score 20 DAA (100%=total damage, 0%=no damage), read-out: Pre-emergence herbicidal activity (percentage phytotoxicity) ECHCG PRE) it was 100%. The pest or weed control at 250 g/ha in the experiment on Lolium perenne (LOLPE) (post-emergence, 360 h, POST-emergence, rate 250 g/ha, visual score 15 DAA (100%=total damage, 0%=no damage), read-out: Post-emergence herbicidal activity (percentage phytotoxicity) LOLPE POST) was found to be 100%; with Lolium perenne (LOLPE) (pre-emergence, 480 h, PRE-emergence, rate 250 g/ha, visual score 20 DAA (100%=total damage, 0%=no damage), read-out: Pre-emergence herbicidal activity (percentage phytotoxicity) LOLPE PRE), 100%.

For `COCCNC(=O)CC1CC(=O)C(c2c(C)cc(-c3ncc(Cl)cc3F)cc2C)C1=O` (stereo not shown) [Compound A47], the pest or weed control at 250 g/ha (in experiment [1] (setting [11]); in experiment [1] (setting [12]); with Avena fatua (AVEFA) (setting [13]); in the experiment on Avena fatua (AVEFA) (setting [14]); in experiment [2] (setting [15]); in experiment [2] (setting [16])) was 100% throughout. Also, the pest or weed control at 250 g/ha in the experiment on Lolium perenne (LOLPE) (setting [17]) and with Lolium perenne (LOLPE) (setting [18]) was 100% in each case.

Consider `C#CC(C)(C)NC(=O)CC1CC(=O)C(c2c(C)cc(-c3ccc(F)cn3)cc2C)C1=O` (stereo not shown) [Compound B388], for which the pest or weed control at 250 g/ha in experiment [1] (setting [19]) stood at 90%; in experiment [1] (setting [20]), 90%; in the experiment with Avena fatua (AVEFA) (setting [21]), 100%; in the experiment with Avena fatua (AVEFA) (setting [22]) it was 90%; in experiment [2] (setting [23]), 100%; in experiment [2] (setting [24]) it was 100%. Moreover, the pest or weed control at 250 g/ha with Lolium perenne (LOLPE) (setting [25]) and in the experiment on Lolium perenne (LOLPE) (setting [26]) was 90% in each case.
